Converted amounts (≈) assume the structure as drawn.
Experiments:
Assay in all cases: In vitro antibacterial evaluation: minimum inhibitory concentration (MIC), broth dilution method
Format in all cases: cell-based
[1] = system: Staphylococcus sp.
Outline: (§1)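 Following NCCLS approved standard M7-A2, compounds are serially diluted from 64 to 0.06 μg/mL in Muller-Hinton II […] and inoculated at 5×10^5 CFU/mL; the MIC is the minimum concentration at which growth is inhibited.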

[2] = system: Streptococcus sp.; conditions: 18 hours at 35° C.
Outline: as §1

[3] = system: Enterococcus sp.; conditions: 18 hours at 35° C.
Outline: as §1

[4] = system: Escherichia coli; conditions: 18 hours at 35° C.
Outline: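 NCCLS M7-A2 broth dilution with Mueller-Hinton II, testing 64-0.06 μg/mL antibiotic against 5×10^5 CFU/mL inocula. Test strains include recent methicillin-, penicillin- or vancomycin-resistant clinical isolates. MIC is the lowest concentration preventing growth.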

[5] = broth dilution, inoculum 5×10^5 CFU/mL

MIC Staphylococcus aureus (ATCC 29213) ([1]; strain ATCC 29213): 32 µg/mL (≈ 20.2 µM)
MIC Staphylococcus aureus (GC 1131) ([1]; strain GC 1131): 32 µg/mL (≈ 20.2 µM)
MIC Staphylococcus aureus (GC 3051) ([1]; strain GC 3051): 32 µg/mL (≈ 20.2 µM)
MIC Staphylococcus aureus (GC 3053) ([1]; strain GC 3053): 32 µg/mL (≈ 20.2 µM)
MIC Staphylococcus aureus (GC 4541) ([1]; strain GC 4541): 32 µg/mL (≈ 20.2 µM)
MIC Staphylococcus aureus (GC 4542) ([1]; strain GC 4542): 32 µg/mL (≈ 20.2 µM)
MIC Staphylococcus aureus-SMITH (GC 4543) ([1]; strain GC 4543): 32 µg/mL (≈ 20.2 µM)
MIC Staphylococcus aureus (GC 4544) ([1]; strain GC 4544): 32 µg/mL (≈ 20.2 µM)
MIC Staphylococcus aureus (GC 4545) ([1]; strain GC 4545): 32 µg/mL (≈ 20.2 µM)
MIC Coagulase Negative Staphylococcus (GC 4547) ([1]; strain GC 4547): 16 µg/mL (≈ 10.1 µM)
MIC Coagulase Negative Staphylococcus (GC 4548) ([1]; strain GC 4548): 16 µg/mL (≈ 10.1 µM)
MIC Coagulase Negative Staphylococcus (GC 4549) ([1]; strain GC 4549): 16 µg/mL (≈ 10.1 µM)
MIC Coagulase Negative Staphylococcus (GC 4551) ([1]; strain GC 4551): 16 µg/mL (≈ 10.1 µM)
MIC Streptococcus agalactiae (GC 4564) ([2]; Streptococcus agalactiae (GC 4564)): 16 µg/mL (≈ 10.1 µM)
MIC Streptococcus pneumoniae (ATCC 6301) ([2]; Streptococcus pneumoniae (ATCC 6301)): 8 µg/mL (≈ 5.05 µM)
MIC Streptococcus pneumoniae (GC 1894) ([2]; Streptococcus pneumoniae (GC 1894)): 8 µg/mL (≈ 5.05 µM)
MIC Streptococcus pneumoniae (GC 4565) ([2]; Streptococcus pneumoniae (GC 4565)): 8 µg/mL (≈ 5.05 µM)
MIC Streptococcus pyogenes (GC 4563) ([2]; Streptococcus pyogenes (GC 4563)): 8 µg/mL (≈ 5.05 µM)
MIC Streptococcus agalactiae (GC 4564) [2, 5]: 16 µg/mL (≈ 10.1 µM)
MIC Streptococcus pneumoniae (ATCC 6301) [2, 5]: 8 µg/mL (≈ 5.05 µM)
MIC Streptococcus pneumoniae (GC 1894) [2, 5]: 8 µg/mL (≈ 5.05 µM)
MIC Streptococcus pneumoniae (GC 4565) [2, 5]: 8 µg/mL (≈ 5.05 µM)
MIC Streptococcus pyogenes (GC 4563) [2, 5]: 8 µg/mL (≈ 5.05 µM)
MIC Enterococcus avium (GC 4558) ([3]; Enterococcus avium (GC 4558)): 8 µg/mL (≈ 5.05 µM)
MIC Enterococcus faecalis (ATCC 29212) ([3]; Enterococcus faecalis (ATCC 29212)): 32 µg/mL (≈ 20.2 µM)
MIC Enterococcus faecalis (GC 2242) ([3]; Enterococcus faecalis (GC 2242)): 32 µg/mL (≈ 20.2 µM)
MIC Enterococcus faecalis (GC 2691) ([3]; Enterococcus faecalis (GC 2691)): 32 µg/mL (≈ 20.2 µM)
MIC Enterococcus faecalis (GC 3059) ([3]; Enterococcus faecalis (GC 3059)): 32 µg/mL (≈ 20.2 µM)
MIC Enterococcus faecalis (GC 4552) ([3]; Enterococcus faecalis (GC 4552)): 32 µg/mL (≈ 20.2 µM)
MIC Enterococcus faecalis (GC 4553) ([3]; Enterococcus faecalis (GC 4553)): 16 µg/mL (≈ 10.1 µM)
MIC Enterococcus faecalis (GC 4554) ([3]; Enterococcus faecalis (GC 4554)): 32 µg/mL (≈ 20.2 µM)
MIC Enterococcus faecalis (GC 6189) ([3]; Enterococcus faecalis (GC 6189)): 32 µg/mL (≈ 20.2 µM)
MIC Enterococcus faecium (GC 2243) ([3]; Enterococcus faecium (GC 2243)): 16 µg/mL (≈ 10.1 µM)
MIC Enterococcus faecium (GC 4556) ([3]; Enterococcus faecium (GC 4556)): 32 µg/mL (≈ 20.2 µM)
MIC Enterococcus faecium (GC 4557) ([3]; Enterococcus faecium (GC 4557)): 16 µg/mL (≈ 10.1 µM)
MIC Enterococcus avium (GC 4558) [3, 5]: 8 µg/mL (≈ 5.05 µM)
MIC Enterococcus faecalis (ATCC 29212) [3, 5]: 32 µg/mL (≈ 20.2 µM)
MIC Enterococcus faecalis (GC 2242) [3, 5]: 32 µg/mL (≈ 20.2 µM)
MIC Enterococcus faecalis (GC 2691) [3, 5]: 32 µg/mL (≈ 20.2 µM)
MIC Enterococcus faecalis (GC 3059) [3, 5]: 32 µg/mL (≈ 20.2 µM)
MIC Enterococcus faecalis (GC 4552) [3, 5]: 32 µg/mL (≈ 20.2 µM)
MIC Enterococcus faecalis (GC 4553) [3, 5]: 16 µg/mL (≈ 10.1 µM)
MIC Enterococcus faecalis (GC 4554) [3, 5]: 32 µg/mL (≈ 20.2 µM)
MIC Enterococcus faecalis (GC 6189) [3, 5]: 32 µg/mL (≈ 20.2 µM)
MIC Enterococcus faecium (GC 2243) [3, 5]: 16 µg/mL (≈ 10.1 µM)
MIC Enterococcus faecium (GC 4556) [3, 5]: 32 µg/mL (≈ 20.2 µM)
MIC Enterococcus faecium (GC 4557) [3, 5]: 16 µg/mL (≈ 10.1 µM)
MIC Escherichia coli (ATCC 25922) ([4]; Escherichia coli (ATCC 25922)): >64 µg/mL
MIC Escherichia coli (GC 4559) ([4]; Escherichia coli (GC 4559)): >64 µg/mL
MIC Escherichia coli (GC 4560) ([4]; Escherichia coli (GC 4560)): 16 µg/mL (≈ 10.1 µM)
SMILES: CC(c1ccccc1)C1NC(=O)CNC(=O)C(CO)NC(=O)C(C(O)C2CN(c3ncccn3)C(=N)N2C2OC(CO)C(O)C(O)C2O)NC(=O)C(C(O)C2CNC(=Nc3ncccn3)N2)NC(=O)C(Cc2ccc(OC3OC(CO)C(OC4OC5COC6(OC5C(O)C4O)C4CC5CC(C4)CC6C5)C(O)C3O)cc2)NC1=O (stereo not drawn) [Example 228, Di-N-(2-(pyrimidinyl)-cyclo[glycyl-β-methylphenylalanyl-O-[4-O-[4,6-O-(2-adamantylidene)hexopyranosyl]hexopyranosyl]tyrosyl-3-[2-iminoimidazolidin-4-yl]seryl-3-β-hexopyranosyl-2-iminoimidazolidin-4-yl]serylseryl]]
MIC Staphylococcus haemolyticus (GC 4546) ([1]; strain GC 4546): 16 µg/mL (≈ 10.1 µM)

— US8247211B2, “Glycopeptide antibiotics” (American Cyanamid Company, priority 2001, dated 2012)
